Experimental data from US5747499A, “Anti-cancer compounds” (British Technology Group Limited, priority 1994, dated 1998).
Read-outs that look alike come from different tables or passages of the source.

Experiments:
[1] = molecular target: T1, thymidylate synthase (Mus musculus, UniProt P07607); assay: Test (a): in vitro assay, inhibition of thymidylate synthase (partially purified from L1210 mouse leukaemia cells); format: biochemical
T1 construct: Thymidylate synthase may be obtained in partially purified form from L1210 mouse leukaemia cells; endogenous in cells; host or cells: L1210 mouse leukaemia cells
T1 sequence (P07607 whole entry): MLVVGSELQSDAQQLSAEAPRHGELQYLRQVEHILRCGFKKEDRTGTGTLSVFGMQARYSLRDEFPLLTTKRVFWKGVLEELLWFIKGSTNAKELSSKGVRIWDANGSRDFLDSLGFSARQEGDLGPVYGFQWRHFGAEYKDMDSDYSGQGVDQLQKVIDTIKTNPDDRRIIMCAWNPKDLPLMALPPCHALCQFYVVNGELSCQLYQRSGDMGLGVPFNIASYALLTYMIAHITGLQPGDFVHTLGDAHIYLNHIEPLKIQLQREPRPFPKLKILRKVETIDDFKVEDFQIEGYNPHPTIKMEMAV
Text: (a) An in vitro assay which determines the ability of a test compound to inhibit the enzyme thymidylate synthase.

[2] = tested on: leukaemia cell line L1210; assay: Test (b): inhibition of growth of the leukaemia cell line L1210 in cell culture; format: cell-based; settings: Mus musculus
Text: (b) An assay which determines the ability of a test compound to inhibit the growth of the leukaemia cell line L1210 in cell culture. The test may be similar to that described in UK Patent Specification No. 2065653B and has been described by Jones et al. (J. Med. Chem., 1985, 28, 1468);

[3] = tested on: human breast, ovarian and liver cancer; settings: in vivo; cited from earlier work
[4] = Cancer Treatment Reports, 1986, 70, 1335; cited from earlier work
[5] = thymidylate synthase partially purified from L1210 mouse leukaemia cells, read-out: IC50 in test (a)

SMILES | IC50 [1] [nM] | IC50 [2] [nM] | IC50 [1, 5] [nM] | activity against human breast, ovarian and liver cancer [3] | symptoms of toxicity in humans [4]
Cc1nc2cc3c(cc2c(=O)[nH]1)C(N(C)c1ccc(C(=O)N[C@H](C(=O)O)c2ccc(CC(=O)O)cc2)c(F)c1)CC3 (mixture of isomers) [Example 8, (2S)-2-{o-fluoro-p-[N-methyl-N-((6RS)-2-methyl-4-oxo-3,4,7,8-tetrahydro-6H-cyclopenta[g]quinazolin-6-yl)amino]benzamido}-2-[p-(carboxymethyl)phenyl]acetic acid] | 7.6 | – | – | – | –
Cc1nc2cc3c(cc2c(=O)[nH]1)C(N(C)c1ccc(C(=O)N[C@@H](CCc2nnn(CC(=O)O)n2)C(=O)O)c(F)c1)CC3 (mixture of isomers) [Example 10, (2S)-2-{o-Fluoro-p-[N-methyl-N-((6RS)-2-methyl-4-oxo-3,4,7,8-tetrahydro-6H-cyclopenta[g]quinazolin-6-yl)amino]benzamido}-4-(2-carboxymethyltetrazol-5-yl)-butyric acid] | 8.8 | 1200 | – | – | –
Cc1nc2cc3c(cc2c(=O)[nH]1)C(N(C)c1ccc(C(=O)N[C@@H](CCc2nnnn2CC(=O)O)C(=O)O)c(F)c1)CC3 (mixture of isomers) [Example 11, (2S)-2-{o-Fluoro-p-[N-methyl-N-((6RS)-2-methyl-4-oxo-3,4,7,8-tetrahydro-6H-cyclopenta[g]quinazolin-6-yl)amino]benzamido}-4-(1-carboxymethyltetrazol-5-yl)-butyric acid] | 14.8 | 23000 | – | – | –
Cc1nc2cc3c(cc2c(=O)[nH]1)[C@H](N(C)c1ccc(C(=O)N[C@@H](CCC(=O)N[C@@H](C(=O)O)c2ccc(CC(=O)O)cc2)C(=O)O)c(F)c1)CC3 (mixture of isomers) [Example 12, (2RS)-2-{N-{N-{o-Fluoro-p-[N-methyl-N-((6RS)-2-methyl-4-oxo-3,4,7,8-tetrahydro-6H-cyclopenta[g]quinazolin-6-yl)amino]benzoyl}-L-γ-glutamyl}amino}-2-[p-(carboxymethyl)phenyl]acetic acid] | 4 | 3900 | – | – | –
C#CCN(c1ccc(C(=O)N[C@@H](CCC(=O)N(C)[C@@H](CCC(=O)O)C(=O)O)C(=O)O)cc1)C1CCc2cc3nc(C)[nH]c(=O)c3cc21 (mixture of isomers) [Example 13, N-{p-[N-((6RS)-2-Methyl-4-oxo-3,4,7,8-tetrahydro-6H-cyclopenta[g]quinazolin-6-yl)-N-(prop-2-ynyl)amino]benzoyl}-L-γ-glutamyl-N-methyl-L-glutamic acid] | 1.42 | 2300 | – | – | –
C#CCN(c1ccc(C(=O)N[C@@H](CCc2nnnn2CCC(=O)O)C(=O)O)cc1)C1CCc2cc3nc(C)[nH]c(=O)c3cc21 (mixture of isomers) [Example 14, (2S)-2-{p-[N-((6RS)-2-methyl-4-oxo-3,4,7,8-tetrahydro-6H-cyclopenta[g]quinazolin-6-yl)-N-(prop-2-ynyl)amino]benzamido}-4-[1-(2-carboxyethyl)tetrazol-5-yl]butyric acid] | 1.84 | 630 | – | – | –
C#CCN(c1ccc(C(=O)N[C@@H](CCC(=O)N[C@@H](CCc2nnnn2CC(=O)O)C(=O)O)C(=O)O)cc1)C1CCc2cc3nc(C)[nH]c(=O)c3cc21 (mixture of isomers) [Example 15, (2S)-2-{N-{N-{p-[N-((6RS)-2-Methyl-4-oxo-3,4,7,8-tetrahydro-6H-cyclopenta[g]quinazolin-6-yl)-N-(prop-2-ynyl)amino]benzoyl}-L-γ-glutamyl}amino}-4-(1-carboxymethyltetrazol-5-yl)butyric acid] | – | 7200 | 1.08 | – | –
C#CCN(c1ccc(C(=O)N[C@@H](CCCS(=O)(=O)c2nnc[nH]2)C(=O)O)cc1)C1CCc2cc3nc(C)[nH]c(=O)c3cc21 (mixture of isomers) [Example 17, (2S)-2-{p-[N-((6RS)-2-methyl-4-oxo-3,4,7,8-tetrahydro-6H-cyclopenta[g]quinazolin-6-yl)-N-(prop-2-ynyl)amino]benzamido}-5-(1H-1,2,4-triazol-3-ylsulphonyl)pentanoic acid] | – | 250 | 1.58 | – | –
C#CCN(c1ccc(C(=O)N[C@@H](CCC(=O)N[C@H](CCC(=O)O)c2nnn[nH]2)C(=O)O)cc1)C1CCc2cc3nc(C)[nH]c(=O)c3cc21 (mixture of isomers) [Example 18, (4R)-4-{N-{N-{p-[N-((6RS)-2-Methyl-4-oxo-3,4,7,8-tetrahydro-6H-cyclopenta[g]quinazolin-6-yl)-N-(prop-2-ynyl)amino]benzoyl}-L-γ-glutamyl}amino}-4-(tetrazol-5-yl)butyric acid] | 1.08 | 860 | – | – | –
C#CCN(c1ccc(C(=O)N[C@@H](CCC(=O)N[C@H](C)C(=O)O)C(=O)O)cc1)C1CCc2cc3nc(C)nc(O)c3cc21 (mixture of isomers) [Example 19, N-{N-{p-[N-((6RS)-2-methyl-4-oxo-3,4,7,8-tetrahydro-6H-cyclopenta[g]quinazolin-6-yl)-N-(prop-2-ynyl)amino]benzoyl}-L-γ-glutamyl}-D-alanine] | – | 520 | 1.84 | – | –
C#CCN(Cc1ccc2nc(N)[nH]c(=O)c2c1)c1ccc(C(=O)N[C@@H](CCC(=O)O)C(=O)O)cc1 [CB3717] | – | – | – | promising activity against human breast, ovarian and liver cancer | shows symptoms of toxicity in humans, particularly in relation to the liver and kidneys
C#CCN(c1ccc(C(=O)N[C@@H](CCc2nnnn2CC(=O)N[C@H](C)C(=O)O)C(=O)O)cc1)C1CCc2cc3nc(C)nc(O)c3cc21 (some centres unmarked) [Example 16] | 3.4 | 10000 | – | – | –
